Key:
[1] = target: T1, Melatonin receptor type 1B (Homo sapiens, UniProt P49286); assay: Binding of 2-[125I]iodomelatonin to membrane preparations of NIH3T3 cells stably expressing human Melatonin receptor type 1B; format: cell membranes
T1 sequence (P49286 whole entry): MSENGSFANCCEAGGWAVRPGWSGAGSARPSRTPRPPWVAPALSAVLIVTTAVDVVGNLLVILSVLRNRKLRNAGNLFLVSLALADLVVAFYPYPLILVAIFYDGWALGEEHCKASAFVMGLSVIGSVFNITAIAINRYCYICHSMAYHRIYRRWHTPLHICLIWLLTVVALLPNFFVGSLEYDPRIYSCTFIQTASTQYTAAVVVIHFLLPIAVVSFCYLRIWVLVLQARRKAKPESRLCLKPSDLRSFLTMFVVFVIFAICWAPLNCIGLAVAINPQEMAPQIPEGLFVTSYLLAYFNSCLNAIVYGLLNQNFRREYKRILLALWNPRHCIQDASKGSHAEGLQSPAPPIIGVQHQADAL

[2] = target: Melatonin receptor type 1A (Homo sapiens, UniProt P48039); assay: Binding of 2-[125I]iodomelatonin to membrane preparations of NIH3T3 cells stably expressing human Melatonin receptor type 1A; format: cell membranes
Chain of Melatonin receptor type 1A (P48039 whole entry): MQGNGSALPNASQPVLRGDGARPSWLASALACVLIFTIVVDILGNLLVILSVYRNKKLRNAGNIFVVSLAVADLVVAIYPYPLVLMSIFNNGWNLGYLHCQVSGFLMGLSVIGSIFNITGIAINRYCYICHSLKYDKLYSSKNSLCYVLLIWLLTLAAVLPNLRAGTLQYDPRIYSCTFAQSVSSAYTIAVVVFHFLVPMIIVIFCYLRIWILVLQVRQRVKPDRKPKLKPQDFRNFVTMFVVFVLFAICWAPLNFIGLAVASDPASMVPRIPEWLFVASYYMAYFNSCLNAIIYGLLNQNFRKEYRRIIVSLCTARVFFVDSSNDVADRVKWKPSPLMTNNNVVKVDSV

Row | Compound | Ki [1] [nM] | Ki [2] [nM]
1 | CCCc1nc2cccc([C@@H]3C[C@H]3CNC(=O)C(C)C)c2o1 | 0.28 | 4.9
2 | O=C(NC[C@@H]1C[C@H]1c1cccc2nc(CCCCc3ccccc3)oc12)C1CC1 | 0.48 | 0.05
3 | CC(=O)NC[C@@H]1C[C@H]1c1cccc2nc(CCCCc3ccccc3)oc12 | 0.37 | 0.05
4 | CCc1nc2cccc([C@@H]3C[C@H]3CNC(=O)C3CC3)c2o1 | 0.19 | 0.05
5 | CCCc1nc2cccc([C@@H]3C[C@H]3CNC(=O)C3CC3)c2o1 | 0.14 | 0.18
6 | CCCC(=O)NC[C@@H]1C[C@H]1c1cccc2nc(CC)oc12 | 0.33 | 0.05
7 | CCCC(=O)NC[C@@H]1C[C@H]1c1cccc2nc(CCC)oc12 | 0.04 | 0.94
8 | CCNC(=O)NC[C@@H]1C[C@H]1c1cccc2nc(C(C)C)oc12 | 12.6 | 11.8
9 | CCC(=O)NC[C@@H]1C[C@H]1c1cccc2nc(CC)oc12 | 0.44 | 0.05
10 | CCC(=O)NC[C@@H]1C[C@H]1c1cccc2nc(CCCCc3ccccc3)oc12 | 0.07 | 0.05
11 | CCCc1nc2cccc([C@@H]3C[C@H]3CNC(=O)NCC)c2o1 | 1 | 3.5
12 | CC(C)C(=O)NC[C@@H]1C[C@H]1c1cccc2nc(C(C)C)oc12 | 2.5 | 1.3
13 | CCCC(=O)NC[C@@H]1C[C@H]1c1cccc2nc(CCCCc3ccccc3)oc12 | 0.24 | 0.05
14 | CCc1nc2cccc([C@@H]3C[C@H]3CNC(C)=O)c2o1 | 0.88 | 0.35
15 | CCc1nc2cccc([C@@H]3C[C@H]3CNC(=O)C(C)C)c2o1 | 0.75 | 0.2
16 | CCC(=O)NC[C@@H]1C[C@H]1c1cccc2nc(C(C)C)oc12 | 0.32 | 4.9
